Laboratory results reported in patent US20220332699A1 (SAGE THERAPEUTICS, INC., priority 2019, published 2022).

Target: CYP46A1 (Homo sapiens, UniProt Q9Y6A2)
Experiment: CYP46A1 Enzyme Assay 2 (testosterone substrate, HPLC-MS)
Type: biochemical
Settings: read-out: IC50 (CYP46A1 inhibitory activity)
Protocol: Briefly, in a 384-well plate format, 10 μL per well of an enzyme-substrate mixture of CYP46A1 (5 μM final concentration) and Testosterone ([…] final concentration) were dispensed to wells containing test compound. For CYP46A1 titration, 5 μL per well of serially diluted CYP46A1 (concentrations including 10 μM, 5 μM, and 2.5 μM) and Testosterone (concentration of […]) were dispensed. For Testosterone titration, 5 μL per well of serially diluted Testosterone (concentrations including 10 μM, 5 μM, and 2.5 μM) and CYP46A1 (concentration of 5 μM) were dispensed. The plates were centrifuged at 1000 rpm for 30 seconds, and then sealed and incubated at 37° C. for 30 minutes. The plate was removed from the incubator, and then 10 μL per well of NADPH-generating system were dispensed to initiate the reaction. The plates were incubated at 37° C. for 15 minutes, added with 80 μL per well of 100% methanol consisting 1 ng/ml diclofenac as internal standard, and then transferred for HPLC-MS.

CYP46A1, sequence (Q9Y6A2 whole entry): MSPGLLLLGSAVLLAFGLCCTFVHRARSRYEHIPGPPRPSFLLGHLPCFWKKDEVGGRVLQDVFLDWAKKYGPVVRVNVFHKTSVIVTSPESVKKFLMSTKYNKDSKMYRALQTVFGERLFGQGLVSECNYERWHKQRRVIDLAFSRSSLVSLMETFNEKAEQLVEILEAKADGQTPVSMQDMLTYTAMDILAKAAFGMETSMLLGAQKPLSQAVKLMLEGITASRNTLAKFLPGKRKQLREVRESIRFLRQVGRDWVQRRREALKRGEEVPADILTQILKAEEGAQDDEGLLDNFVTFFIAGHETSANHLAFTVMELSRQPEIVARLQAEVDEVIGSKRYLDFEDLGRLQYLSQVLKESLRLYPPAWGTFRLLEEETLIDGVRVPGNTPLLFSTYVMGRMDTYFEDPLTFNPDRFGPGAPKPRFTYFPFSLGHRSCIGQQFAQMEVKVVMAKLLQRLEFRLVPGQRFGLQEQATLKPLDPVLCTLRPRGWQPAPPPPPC

| Structure (SMILES) | IC50 |
| --- | --- |
| Cc1ncc(CC2(C#N)CCN(C(=O)c3cccnc3-c3ccncn3)CC2)cn1 [Compound A203, 4-((2-methylpyrimidin-5-yl)methyl)-1-(2-(pyrimidin-4-yl)nicotinoyl)piperidine-4-carbonitrile] | > 1000 nM |
| N#CC1(Cc2cc(C(F)(F)F)ccc2F)CCN(C(=O)c2cccnc2-c2ccncc2)CC1 [Compound A283, 1-([2,4′-bipyridine]-3-carbonyl)-4-(2-fluoro-5-(trifluoromethyl)benzyl)piperidine-4-carbonitrile] | < 100 nM |
| N#CC1(Cc2ccc(F)cc2F)CCN(C(=O)c2cccnc2-c2ccncn2)CC1 [Compound A51, 4-(2,4-difluorobenzyl)-1-(2-(pyrimidin-4-yl)nicotinoyl)piperidine-4-carbonitrile] | < 100 nM |
| C[C@@H](c1c(F)cccc1F)C1(C#N)CCN(C(=O)c2cccnc2-c2ccncn2)CC1 [Compound A244, (R)-4-(1-(2,6-difluorophenyl)ethyl)-1-(2-(pyrimidin-4-yl)nicotinoyl)piperidine-4-carbonitrile] | < 100 nM |
| N#CC1(Cc2c(F)cccc2F)CCN(C(=O)c2cccnc2-c2ccncn2)CC1 [Compound A207, 4-(2,6-difluorobenzyl)-1-(2-(pyrimidin-4-yl)nicotinoyl)piperidine-4-carbonitrile] | < 100 nM |
| N#CC1(Cc2ccc(F)cc2)CCN(C(=O)c2cccnc2-n2cncn2)CC1 [Compound A74, 1-(2-(1H-1,2,4-triazol-1-yl)nicotinoyl)-4-(4-fluorobenzyl)piperidine-4-carbonitrile] | > 1000 nM |
| N#CC1(Cc2ccc(F)cc2C(F)(F)F)CCN(C(=O)c2cccnc2-c2ccncn2)CC1 [Compound A276, 4-(4-fluoro-2-(trifluoromethyl)benzyl)-1-(2-(pyrimidin-4-yl)nicotinoyl)piperidine-4-carbonitrile] | 100 to 1000 nM |
| N#CC1(Cc2ccccc2F)CCN(C(=O)c2cccnc2-c2ccncc2)CC1 [Compound A12, 1-{[2,4′-bipyridine]-3-carbonyl}-4-[(2-fluorophenyl)methyl]piperidine-4-carbonitrile] | < 100 nM |
| C[C@@H]1CN(C(=O)c2cccnc2-c2ccncn2)CC[C@@]1(C#N)Cc1ccc(F)cc1 [Compound A247, (3S,4S)-4-(4-fluorobenzyl)-3-methyl-1-(2-(pyrimidin-4-yl)nicotinoyl)piperidine-4-carbonitrile] | < 100 nM |
| CC[C@@H](c1ccc(F)cc1)C1(C#N)CCN(C(=O)c2cccnc2-c2ccncn2)CC1 [Compound A216, (S)-4-(1-(4-fluorophenyl)propyl)-1-(2-(pyrimidin-4-yl)nicotinoyl)piperidine-4-carbonitrile] | < 100 nM |
| N#CC1(Cc2ccc(F)c(C(F)(F)F)c2)CCN(C(=O)c2cccnc2-c2ccncc2)CC1 [Compound A278, 1-([2,4′-bipyridine]-3-carbonyl)-4-(4-fluoro-3-(trifluoromethyl)benzyl)piperidine-4-carbonitrile] | < 100 nM |
| CC(C)(O)c1ccc(CC2(C#N)CCN(C(=O)c3cccnc3-c3ccncn3)CC2)cc1 [Compound A223, 4-(4-(2-hydroxypropan-2-yl)benzyl)-1-(2-(pyrimidin-4-yl)nicotinoyl)piperidine-4-carbonitrile] | 100 to 1000 nM |
| C[C@H](c1ccc(C(F)(F)F)cc1F)C1(C#N)CCN(C(=O)c2cccnc2-c2ccncn2)CC1 [Compound A287, (S)-4-(1-(2-fluoro-4-(trifluoromethyl)phenyl)ethyl)-1-(2-(pyrimidin-4-yl)nicotinoyl)piperidine-4-carbonitrile] | < 100 nM |
| N#CC1(Cc2cc(F)ccc2F)CCN(C(=O)c2cccnc2-c2ccncc2)CC1 [Compound A282, 1-([2,4′-bipyridine]-3-carbonyl)-4-(2,5-difluorobenzyl)piperidine-4-carbonitrile] | < 100 nM |
| N#CC1(Cc2c(F)cc(C(F)(F)F)cc2F)CCN(C(=O)c2cccnc2-c2ccncn2)CC1 [Compound A281, 4-(2,6-difluoro-4-(trifluoromethyl)benzyl)-1-(2-(pyrimidin-4-yl)nicotinoyl)piperidine-4-carbonitrile] | < 100 nM |
| N#CC1(Cc2ccc(F)cc2)CCN(C(=O)c2cc(C3CC3)ccc2-c2ccncn2)CC1 [Compound A254, 1-(5-cyclopropyl-2-(pyrimidin-4-yl)benzoyl)-4-(4-fluorobenzyl)piperidine-4-carbonitrile] | < 100 nM |
| N#CC1(Cc2cccc(C(F)(F)F)c2)CCN(C(=O)c2cccnc2-c2ccncc2)CC1 [Compound A279, 1-([2,4′-bipyridine]-3-carbonyl)-4-(3-(trifluoromethyl)benzyl)piperidine-4-carbonitrile] | < 100 nM |
| N#CC1(Cc2ccc(F)cc2C(F)(F)F)CCN(C(=O)c2cccnc2-c2ccncc2)CC1 [Compound A277, 1-([2,4′-bipyridine]-3-carbonyl)-4-(4-fluoro-2-(trifluoromethyl)benzyl)piperidine-4-carbonitrile] | < 100 nM |

| Structure (SMILES) | IC50 |
| --- | --- |
| N#CC1(Cc2ccc(OC(F)(F)F)cc2)CCN(C(=O)c2cccnc2-c2ccncc2)CC1 [Compound A10, 1-([2,4′-bipyridine]-3-carbonyl)-4-(4-(trifluoromethoxy)benzyl)piperidine-4-carbonitrile] | < 100 nM |
| N#CC1(Cc2ccc(Cl)cc2Br)CCN(C(=O)c2cccnc2-c2ccncn2)CC1 [Compound A232, 4-(2-bromo-4-chlorobenzyl)-1-(2-(pyrimidin-4-yl)nicotinoyl)piperidine-4-carbonitrile] | < 100 nM |
| N#CC1(Cc2cccc(C3CC3)c2)CCN(C(=O)c2cccnc2-c2ccncn2)CC1 [Compound A218, 4-(3-cyclopropylbenzyl)-1-(2-(pyrimidin-4-yl)nicotinoyl)piperidine-4-carbonitrile] | < 100 nM |
| COc1ccc(CC2(C#N)CCN(C(=O)c3cccnc3-c3ccncn3)CC2)cn1 [Compound A202, 4-((6-methoxypyridin-3-yl)methyl)-1-(2-(pyrimidin-4-yl)nicotinoyl)piperidine-4-carbonitrile] | < 100 nM |
| N#CC1(Cc2cccc(F)c2)CCN(C(=O)c2cccnc2-c2ccncc2)CC1 [Compound A13, 1-{[2,4′-bipyridine]-3-carbonyl}-4-[(3-fluorophenyl)methyl]piperidine-4-carbonitrile] | < 100 nM |
| N#CC1(Cc2ccccc2C(F)(F)F)CCN(C(=O)c2cccnc2-c2ccncc2)CC1 [Compound A275, 1-([2,4′-bipyridine]-3-carbonyl)-4-(2-(trifluoromethyl)benzyl)piperidine-4-carbonitrile] | < 100 nM |
| N#CC1(Cc2ccc(-c3ccccc3)cc2)CCN(C(=O)c2cccnc2-c2ccncc2)CC1 [Compound A19, 4-([1,1′-biphenyl]-4-ylmethyl)-1-([2,4′-bipyridine]-3-carbonyl)piperidine-4-carbonitrile] | < 100 nM |
| N#CC1(CCCc2ccccc2)CCN(C(=O)c2cccnc2-c2ccncc2)CC1 [Compound A71, 1-{[2,4′-bipyridine]-3-carbonyl}-4-(3-phenylpropyl)piperidine-4-carbonitrile] | < 100 nM |
| CC(c1c(F)cc(F)cc1F)C1(C#N)CCN(C(=O)c2cccnc2-c2ccncn2)CC1 (stereo in doubt) [Compound A271, (R)-1-(2-(pyrimidin-4-yl)nicotinoyl)-4-(1-(2,4,6-trifluorophenyl)ethyl)piperidine-4-carbonitrile] | < 100 nM |
| C[C@H](c1ccc(C(F)(F)F)cc1)C1(C#N)CCN(C(=O)c2cccnc2-c2ccncn2)CC1 [Compound A251, (R)-1-(2-(pyrimidin-4-yl)nicotinoyl)-4-(1-(4-(trifluoromethyl)phenyl)ethyl)piperidine-4-carbonitrile] | < 100 nM |
| CC[C@H](c1ccc(F)cc1)C1(C#N)CCN(C(=O)c2cccnc2-c2ccncn2)CC1 [Compound A215, (R)-4-(1-(4-fluorophenyl)propyl)-1-(2-(pyrimidin-4-yl)nicotinoyl)piperidine-4-carbonitrile] | < 100 nM |
| N#CC1(Cc2ccc(F)cc2)CCN(C(=O)c2ccc(F)cc2-c2ccncn2)CC1 [Compound A220, 1-(4-fluoro-2-(pyrimidin-4-yl)benzoyl)-4-(4-fluorobenzyl)piperidine-4-carbonitrile] | < 100 nM |
| N#CC1(Cc2ccc(F)c(F)c2)CCN(C(=O)c2cccnc2-c2ccncc2)CC1 [Compound A69, 1-([2,4′-bipyridine]-3-carbonyl)-4-(3,4-difluorobenzyl)piperidine-4-carbonitrile] | < 100 nM |
| N#CC1(Cc2ccc(C3CC3)nc2)CCN(C(=O)c2cccnc2-c2ccncn2)CC1 [Compound A211, 4-((6-cyclopropylpyridin-3-yl)methyl)-1-(2-(pyrimidin-4-yl)nicotinoyl)piperidine-4-carbonitrile] | < 100 nM |
| N#CC1(Cc2cccc3ccccc23)CCN(C(=O)c2cccnc2-c2ccncn2)CC1 [Compound A225, 4-(naphthalen-1-ylmethyl)-1-(2-(pyrimidin-4-yl)nicotinoyl)piperidine-4-carbonitrile] | < 100 nM |
| N#CC1(Cc2ccc(F)cc2)CCN(C(=O)c2cc(C(F)(F)F)ccc2-c2ccncn2)CC1 [Compound A227, 4-(4-fluorobenzyl)-1-(2-(pyrimidin-4-yl)-5-(trifluoromethyl)benzoyl)piperidine-4-carbonitrile] | < 100 nM |
| N#CC1(Cc2ccc(F)cc2)CCN(C(=O)c2cc(F)ccc2-c2ccncn2)CC1 [Compound A219, 1-(5-fluoro-2-(pyrimidin-4-yl)benzoyl)-4-(4-fluorobenzyl)piperidine-4-carbonitrile] | < 100 nM |
